Test [1] concerns recombinant Arabidopsis ENOX1. Kind of test: NADH oxidase activity of IEF-purified recombinant Arabidopsis ENOX1. The format is biochemical. As to the method: (§1) Cells were centrifuged at 5,000 g for 6 min. Pellets were then resuspended in 20 mM Tris-HCl, pH 8.0, containing 0.5 mM PMSF, 1 mM benzamidine and 1 mM 6-aminocaproic and lysed by three passages through a French pressure cell (SLM Aminco) at 20,000 psi. Expression of the recombinant Arabidopsis ENOX1 of about 14 kDa was confirmed by SDS-PAGE with silver staining. Transformed cells were stored at −80° C. in a standard glycerol stock solution. The Arabidopsis ENOX1 proteins were further purified on Criterion IEF gels (Bio-Rad, Hercules, Calif.). The IEF gel was cut into seven equal segments. The pH represented by each slice was based on IEF standards (Bio-Rad). The slices were soaked in 15 mM Tris-Mes buffer, pH 7, at 4° C. for overnight with shaking. The gel-free extracts were assayed for ENOX1 activity.
(§2) Oxidation of NADH was determined spectrophotometrically from the disappearance of NADH measured at 340 nm in a reaction mixture containing 25 mM Tris-MES (pH 7.2), 100 μM GSH, 1 mM KCN to inhibit mitochondrial oxidase activity, 150 μM NADH and the enzyme at 37° C. with temperature control (±0.5° C.) and stirring. Prior to assay, 1 μM reduced glutathione was added to reduce the protein in the presence of substrate. After 10 min, 0.03% hydrogen peroxide was added to reoxidize the protein under renaturing conditions and in the presence of substrate to start the reaction. Activities were measured using paired Hitachi U3210 or paired SLM Aminco 2000 spectrophotometers both with continuous recording. Assays were run for 1 min and were repeated on the same sample at intervals of 1.5 min for the times indicated. An extinction coefficient of 6.22 cm^−1 mM^−1 was used to determine specific activity.
IEF purified ENOX1 was concentrated to 0.7 mg/ml by using a Centricon concentrator (Millipore Corporation, Danvers, Mass.) fitted with a 10,000 nominal molecular weight limit ultracel YM membrane. Samples (50 μl) were combined with 1 μl of trifluoroacetic acid (TFA) in the presence or absence of 15 μl 10 mM bathocuproine. After 2 h of incubation at room temperature, the samples were dialyzed (Spectra/Pro Dialysis membrane, molecular weight cut-off 6-8,000, Spectrum Laboratories (Rancho Dominguez, Calif.) against 20 mM Tris-HCl, pH 8, at 4° C. overnight.

For the next test, the system named is 375 NR soybeans. Kind of test: TR-III spray, greenhouse soybeans, plant height above cotyledons. Particulars: for Plant height above cotyledons: single experiments, 10 days after spraying. The format is in vivo, soybean. Set-up: Plant height above cotyledons: unit not given beside the values.
In another test the test system is soybean plants. Kind of test: TR-III spray, greenhouse soybeans from untreated seed, epicotyl enlargement. Format: in vivo. The text has this: FIG. 20. As in FIG. 19, except plants were from untreated seed and sprayed with different rates of TR-III.
In the next test the test system is plasma membrane ENOX1. Kind of test: Plasma membrane ENOX1 activity with added cysteine. Format: biochemical, soybean. To be noted: for ENOX1: +100 μM cysteine.
The next test deals with soybean shoots. Description: Shoot growth of excised soybean shoots in TR-III solutions. The format is in vivo. To be noted: narrow range, FIG. 18. The text has this: FIG. 18. As in FIG. 17, except untreated seeds were germinated and excised shoots were transferred to TR-III solutions of different concentrations prepared in water.
For the next test, the system named is soybeans. Kind of test: Soybean field experiment with TR-III foliar spray, standability. The format is in vivo. To be noted: 0.01 lb/A foliar spray; No TR-III plants severely lodged. The text has this:
FIG. 21. Pods per plant of soybeans in a field experiment comparing no TR-III (solid symbols) with 0.01 lb/A TR-III (open symbols, dashed lines) as a foliar spray applied July 3. FIG. 23. Standability of soybeans from the field experiment of FIG. 21. No TR-III plants (left) were severely lodged.

The subject of a further test is dNOX of soybean. Kind of test: Stimulation of NOX activity of soybean plasma membranes (dNOX of soybean). Format: biochemical. Particulars: 1 μM.
The target in another test is T1, recombinant ABP-20 (Prunus persica, UniProt O04011, DUP151-151).
T1 construct: made in house; host or cells: E. coli BL21 (DE3), pET11b
Description: NADH oxidase activity of IEF-purified recombinant ABP-20 (dNOX). Format: biochemical. As to the method:
as §2
as §1, with “recombinant ABP-20” for “recombinant Arabidopsis ENOX1”, “about 20” for “about 14”, “The recombinant” for “The Arabidopsis ENOX1”, “for ENOX activities as follows: […]” for “for ENOX1 activity.”

The target in a further test is T2, recombinant human ENOX2 (Homo sapiens, UniProt Q16206).
T2 sequence (Q16206 1-610): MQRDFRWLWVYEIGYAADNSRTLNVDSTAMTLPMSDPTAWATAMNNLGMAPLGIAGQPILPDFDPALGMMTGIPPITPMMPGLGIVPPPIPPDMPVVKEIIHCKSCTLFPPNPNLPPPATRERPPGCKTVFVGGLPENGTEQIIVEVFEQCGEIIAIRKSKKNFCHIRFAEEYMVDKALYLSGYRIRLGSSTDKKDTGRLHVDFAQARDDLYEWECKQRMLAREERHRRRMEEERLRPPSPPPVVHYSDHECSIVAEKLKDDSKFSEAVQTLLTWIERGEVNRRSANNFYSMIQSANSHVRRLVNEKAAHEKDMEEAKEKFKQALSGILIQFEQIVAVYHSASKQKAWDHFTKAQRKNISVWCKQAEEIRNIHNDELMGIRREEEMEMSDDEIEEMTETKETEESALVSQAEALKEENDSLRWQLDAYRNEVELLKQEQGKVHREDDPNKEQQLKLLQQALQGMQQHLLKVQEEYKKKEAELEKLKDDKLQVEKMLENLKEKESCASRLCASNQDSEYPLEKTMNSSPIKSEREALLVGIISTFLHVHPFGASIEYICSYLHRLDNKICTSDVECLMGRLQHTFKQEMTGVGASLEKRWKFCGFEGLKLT
Description: Inhibition of recombinant human ENOX2 assayed in parallel. Format: biochemical. To be noted: read-out: inhibition of recombinant human ENOX2. An excerpt:
Simalikalactone D is a general ENOX1 inhibitor.

Test [2] deals with T3, dNOX (ABP-20) (Prunus persica, UniProt O04011, C44A/DUP151-151).
T3 construct: made in house; host or cells: E. coli BL21 (DE3), pET11b (as for the unmodified protein; not repeated for the mutants)
Kind of test: NADH oxidation of dNOX (ABP-20) site-directed mutants. The format is biochemical. Particulars: versus wild type. As to the method:
as §2
(§3) Amino acids indicated were replaced by alanines by site-directed mutagenesis according to Braman et al. (Braman, J., Papworth, C. and Greener, A. 1996. Methods Mol. Biol. 57:32-44). Numbered amino acids and nucleotide positions of splice variant products refer to numbers assigned to amino acids of the full length transcript

Test [3] deals with dNOX (ABP-20). The description is as above. Format: biochemical. As to the method:
as §2, §3

In test [4] the target is T3, dNOX (ABP-20). Description: DTDP (protein disulfide-thiol) interchange of dNOX (ABP-20) site-directed mutants. Format: biochemical. To be noted: versus wild type. As to the method: (§4) Protein disulfide-thiol interchange was determined spectrophotometrically from the increase in absorbance at 340 nm resulting from the cleavage of dithiodipyridine (DTDP (Morré, D. J., Gomez-Rey, M. L., Schramke, C., Em, O., Lawler, J., Hobeck, J. and Morré, D. M. 1999. Mol. Cell. Bochem. 200: 7-13). DTDP cleavage was buffered (50 mM Tris-MES, pH 7). The assay was preincubated (1 h at room temperature) with 0.5 μmoles 2,2′-dithiodipyridine (DTDP) in 5 μl of DMSO to react with endogenous reductants present with the plasma membranes. After 10 min, a further […] DTDP were added in 35 μl DMSO to start the reaction. The final reaction volume was […]. The reaction was monitored from the increase in absorbance at 340 nm. Specific activities were calculated using a milimolar absorption coefficient of 6.21.
as §3

The subject of test [5] is dNOX (ABP-20). The description is as above. Format: biochemical. On the procedure: as §4, §3

Values joined by “and” are separate entries in the source; they are usually repeats but may differ in a detail not shown here. Identical values can stand only once.

T3 sequence (O04011 other isoform, or with tags, fused parts or gaps C44A/DUP151-151): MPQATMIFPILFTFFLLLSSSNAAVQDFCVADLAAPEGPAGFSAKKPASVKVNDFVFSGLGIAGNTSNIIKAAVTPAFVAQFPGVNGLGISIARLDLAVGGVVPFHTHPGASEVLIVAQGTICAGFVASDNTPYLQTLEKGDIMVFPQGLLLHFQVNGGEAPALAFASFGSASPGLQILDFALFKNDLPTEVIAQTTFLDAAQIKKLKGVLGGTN

On to `N[C@@H](CS)C(=O)O` [TR-III, cysteine], for which the “Stimulation of NADH oxidation” value in test [1] (recombinant protein expressed in bacteria, FIG. 14) is on record as “specific for maximum (3)”. Moreover, the “Plant height above cotyledons, Ave + MAD” value with 375 NR soybeans (spray 0.001 lb/A, 0 lb/A: 13.6 ± 0.3) is reported as 14.7 ± 0.1; in the test on 375 NR soybeans (spray 0.01 lb/A) it was 14.4 ± 0.1; in the test with 375 NR soybeans (spray 0.1 lb/A), 15.2 ± 0.7. The “Plant height above cotyledons” value in the test on 375 NR soybeans (spray 0.001 lb/A, 0 lb/A: 13.3, 13.9) is 14.8 and 14.6; in the test with 375 NR soybeans (spray 0.01 lb/A), 14.3 and 14.5; in the test with 375 NR soybeans (spray 0.1 lb/A) it was 14.4 and 15.9. In addition, the Epicotyl enlargement entry is “little or no effect” in the test on soybean plants (spray 0.001 or 0.1 lb/A) and “Epicotyl enlargement was observed” in the test with soybean plants (spray 0.01 lb/A). In addition, the “response of plasma membrane ENOX1 activity to added cysteine” value in the test with plasma membrane ENOX1 (100 μM, both ST-109-2-4 and Williams 82) was “about 12%”. The ENOX1 with plasma membrane ENOX1 (plasma membranes of Williams 82 ISU, −cysteine 0.060 ± 0.003) is on record as 0.072 ± 0.003 μmoles/min/mg protein; in the test with plasma membrane ENOX1 (plasma membranes of transgenic ST-109-2-4, −cysteine 0.110 ± 0.004), 0.123 ± 0.005 μmoles/min/mg protein. Moreover, the “concentration range stimulating shoot growth” value with soybean shoots is “around 10^−7 M”. In the test on soybeans, the “Standability (lodging)” value is “did not lodge”.

On to `O=C(O)COc1ccc(Cl)cc1Cl` [2,4-dichlorophenoxyacetic acid], for which the NADH oxidase activity in test [1] (addition 1 μM, average of 3 determinations ± SD, None = 2.7 ± 0.4) was determined as 3.7 ± 0.1 µmol/min/mg; at recombinant ABP-20 (addition 1 μM, average of 3 determinations ± SD, None = 0.1 ± 0.08) it was 0.8 ± 0.2 µmol/min/mg. Besides, the “Effect on ENOX1 activity eluted from the IEF gel” value in test [1] (concentrations of Table 5) was “without effect”. In addition, in the test on dNOX of soybean, the “stimulation of NOX activity of soybean plasma membranes (dNOX)” value was “approximately two-fold”. Also, the average specific activity on recombinant ABP-20 (1 μM auxin, IEF-purified fractions) is on record as roughly 0.6±0.2 μmoles/min/mg protein. Also, the “optimum concentration for activation” value on recombinant ABP-20 (higher concentration less effective) is given as “about 1 μM”.

For the molecule `Oc1ccc(C2=Cc3ccc(O)cc3OC2)cc1` [Phenoxodiol], the inhibition (as a rule, how much of the control response was suppressed) at 10 µM at recombinant human ENOX2 is greater than 90%.

B1: C44A: ABP-20 with C44 replaced by alanine (CKK motif) (protein, UniProt O04011 24-214, looked up, variant C44A)
Auxin-binding protein ABP20: AVQDFCVADLAAPEGPAGFSAKKPASVKVNDFVFSGLGIAGNTSNIIKAAVTPAFVAQFPGVNGLGISIARLDLAVGGVVPFHTHPGASEVLIVAQGTICAGFVASDNTPYLQTLEKGDIMVFPQGLLHFQVNGGEAPALAFASFGSASPGLQILDFALFKNDLPTEVIAQTTFLDAAQIKKLKGVLGGTN
With B1, the “reduction of NADH oxidation activity” value in the test with dNOX (ABP-20) [2] is listed as 81%. Moreover, in the test with dNOX (ABP-20) [3], the “NADH Oxidation” value stood at 0.15 ± 0.05 μmoles/min/mg protein. The “reduction of protein disulfide-dithiol interchange activity” value with dNOX (ABP-20) [4] is on record as 81%. Further, the “DTDP Interchange” value in the test on dNOX (ABP-20) [5] came to 0.02 ± 0.01 μmoles/min/mg protein.

B2: None (Wild Type): recombinant auxin-activated ENOX protein ABP-20 (Prunus persica), SEQ ID NO: 8, unmodified (protein, listed as Prunus persica)
chain: MPQATMIFPILFTFFLLLSSSNAAVQDFCVADLAAPEGPAGFSCKKPASVKVNDFVFSGLGIAGNTSNIIKAAVTPAFVAQFPGVNGLGISIARLDLAVGGVVPFHTHPGASEVLIVAQGTICAGFVASDNTPYLQTLEKGDIMVFPQGLLLHFQVNGGEAPALAFASFGSASPGLQILDFALFKNDLPTEVIAQTTFLDAAQIKKLKGVLGGTN
modifications: DISULFID (29)..(44); BINDING (59)..(64); BINDING (106)..(108); BINDING (113)..(113); BINDING (150)..(152)
In the case of B2, in the test on dNOX (ABP-20) [3], the “NADH Oxidation” value was 0.8 ± 0.1 μmoles/min/mg protein. For the same molecule, the “DTDP Interchange” value in the test with dNOX (ABP-20) [5] came to 0.9 ± 0.05 μmoles/min/mg protein.

The values above are taken from patent US20160108414A1, “GROWTH-RELATED ENOX PROTEINS FROM PLANTS WITH YIELD ENHANCEMENT POTENTIAL, SEQUENCES AND METHODS” (Mor-NuCo Enterprises, Inc., priority 2013, published 2016).
